Measured values reported in patent US20240190856A1, “MELANOCORTIN-4 RECEPTOR AGONIST” (LG CHEM, LTD., priority 2021, published 2024).
Where a name gives a salt, the structure may show the parent alone.

Biological target: MC4R (Homo sapiens, UniProt P32245)
Test: β-arrestin assay (Pathhunter eXpress β-arrestin U2OS cell line)
Format: cell-based
Set-up: expressed in transfected cells; host or cells: U2OS (Pathhunter eXpress β-arrestin cell line)
Conditions: U2OS cells, PK-tagged MC4R and EA-tagged β-arrestin, 37° C. for 90 minutes
Source text: The melanocortin receptor is a type of G-protein coupled receptor (GPCR) and regulates various physiological responses by transducing signals from many neurotransmitters. When GPCR is phosphorylated, β-arrestin is bound to the phosphorylated part of the receptor and plays an important role in activating various signaling pathways in cells through interaction with other proteins. It is known that, when the melanocortin receptor interacts with an agonist, β-arrestin is mobilized and is involved in the β-arrestin-mediated signaling pathway. Therefore, the activity of the melanocortin receptor can be evaluated through the measurement of β-arrestin.
A Pathhunter eXpress β-arrestin cell line (U2OS cell line) in which Prolink (PK)-tagged MC1R, MC3R, MC4R, MC5R and Enzyme acceptor (EA)-tagged β-arrestin were expressed together was established. When the MCR-PK portion of this cell line is activated, β-arrestin-EA is mobilized, and enzyme acceptor (EA) and Prolink (PK), which are the β-galactosidase enzyme fragments, interact. The activated enzyme hydrolyzes the substrate by β-galactosidase activity to produce a chemiluminescent signal, so that the activity can be measured. After the Pathhunter eXpress β-arrestin cell line (U2OS cell line) was incubated, the cells were inoculated into each well of the cell culture plate and incubated for 48 hours in a 37° C. incubator in the presence of 5% CO2. After the incubation, 5 μl of the sample diluted 5 times with buffer was added, the vehicle concentration was set to 1%, and the MC4R agonist compound diluted at each step concentration was added, followed by reaction at 37° C. for 90 minutes. The activity (%) of each agonist compound is expressed as 100% ×(average RLU value of sample−average RLU value of vehicle control)/(average maximum value of control ligand−average RLU value of vehicle control), and the value was analyzed by CBIS data analysis suite (ChemInnovation, CA).

MC4R, sequence (P32245 whole entry, species assumed): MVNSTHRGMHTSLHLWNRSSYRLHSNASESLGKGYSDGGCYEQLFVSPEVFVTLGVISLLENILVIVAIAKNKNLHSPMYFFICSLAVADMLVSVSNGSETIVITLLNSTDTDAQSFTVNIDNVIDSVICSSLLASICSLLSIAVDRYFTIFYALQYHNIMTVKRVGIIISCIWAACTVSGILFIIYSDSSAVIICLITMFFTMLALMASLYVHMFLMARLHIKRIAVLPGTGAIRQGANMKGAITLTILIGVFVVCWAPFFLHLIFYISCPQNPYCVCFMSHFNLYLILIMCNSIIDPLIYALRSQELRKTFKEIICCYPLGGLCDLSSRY
MC4R, sequence (P32121 whole entry partner, species assumed): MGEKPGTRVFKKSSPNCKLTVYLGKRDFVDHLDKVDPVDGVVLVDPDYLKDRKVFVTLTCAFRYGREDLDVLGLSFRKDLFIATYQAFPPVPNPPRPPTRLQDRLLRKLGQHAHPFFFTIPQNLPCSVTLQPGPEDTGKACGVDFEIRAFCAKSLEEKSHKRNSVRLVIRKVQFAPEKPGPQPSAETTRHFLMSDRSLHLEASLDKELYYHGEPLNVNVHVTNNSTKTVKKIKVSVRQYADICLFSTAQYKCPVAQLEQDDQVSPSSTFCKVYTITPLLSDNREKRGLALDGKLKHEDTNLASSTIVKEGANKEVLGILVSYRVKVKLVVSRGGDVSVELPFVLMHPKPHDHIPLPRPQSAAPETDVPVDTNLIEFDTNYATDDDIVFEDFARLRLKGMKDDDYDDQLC

| SMILES | EC50 [nM] |
| --- | --- |
| CC(C)C(=O)N([C@H]1C[C@@H](C(=O)N2CCOCC2)N(C(=O)[C@@H]2CN(C(C)(C)C)C[C@H]2c2ccc(F)cc2F)C1)[C@H]1CC[C@@H](C)CC1 [Example 2, N-((3S,5S)-1-((3S,4R)-1-(tert-butyl)-4-(2,4-difluorophenyl)pyrrolidine-3-carbonyl)-5-(morpholine-4-carbonyl)pyrrolidin-3-yl)-N-((1s,4R)-4-methylcyclohexyl)isobutyramide hydrochloride] | 15 |
| CC(C)C(=O)N([C@H]1C[C@@H](C(=O)N2CCOCC2)N(C(=O)[C@@H]2CN(C(C)(C)C)C[C@H]2c2ccc(Cl)cc2F)C1)[C@H]1CC[C@@H](C)CC1 [Example 3, N-((3S,5S)-1-((3S,4R)-1-(tert-butyl)-4-(4-chloro-2-fluorophenyl)pyrrolidine-3-carbonyl)-5-(morpholine-4-carbonyl)pyrrolidin-3-yl)-N-((1s,4R)-4-methylcyclohexyl)isobutyramide hydrochloride] | 4.5 |
| CC(C)(C)C(=O)N([C@H]1C[C@@H](C(=O)N2CCOCC2)N(C(=O)[C@@H]2CN(C(C)(C)C)C[C@H]2c2ccc(F)cc2F)C1)[C@H]1CC[C@@H](C)CC1 [Example 1, N-((3S,5S)-1-((3S,4R)-1-(tert-butyl)-4-(2,4-difluorophenyl)pyrrolidine-3-carbonyl)-5-(morpholine-4-carbonyl)pyrrolidin-3-yl)-N-((1s,4R)-4-methylcyclohexyl)pivalamide hydrochloride] | 8.02 |

The next lines start with the values.

| EC50 [nM] | SMILES |
| --- | --- |
| 4.2 | CC(C)(C)C(=O)N([C@H]1C[C@@H](C(=O)N2CCOCC2)N(C(=O)[C@@H]2CN(C(C)(C)C)C[C@H]2c2ccc(Cl)cc2F)C1)[C@H]1CC[C@@H](C)CC1 [Example 4, N-((3S,5S)-1-((3S,4R)-1-(tert-butyl)-4-(4-chloro-2-fluorophenyl)pyrrolidine-3-carbonyl)-5-(morpholine-4-carbonyl)pyrrolidin-3-yl)-N-((1s,4R)-4-methylcyclohexyl)pivalamide hydrochloride] |
| 13 | CC1(C)CCC(N(C(=O)C(C)(C)C)[C@H]2C[C@@H](C(=O)N3CCOCC3)N(C(=O)[C@@H]3CN(C(C)(C)C)C[C@H]3c3ccc(Cl)cc3)C2)CC1 [Example 6, N-((3S,5S)-1-((3S,4R)-1-(tert-butyl)-4-(4-chlorophenyl)pyrrolidine-3-carbonyl)-5-(morpholine-4-carbonyl)pyrrolidin-3-yl)-N-(4,4-dimethylcyclohexyl)pivalamide hydrochloride] |
